In article PMC10555500, “Evaluation of the Antiproliferative Properties of CpRu Complexes Containing N-Methylated Triazaphosphaadamantane Derivatives” (Bioinorganic Chemistry and Applications, 2023):

Tests used:
[1] = test system: MDA-MB-231 cells; experiment: Complex uptake and subcellular distribution by ICP-MS; format: cell-based, human; conditions: MDA-MB-231, ICP-MS 106Pd
Experimental: For the cellular uptake experiments, MDA-MB-231 cells (approx. 5·10^6 cells/5 mL medium) were exposed to the complexes at their respective IC50 concentrations and in two conditions (6 h and 24 h of incubation time) and then washed with ice-cold PBS and centrifuged to obtain a cellular pellet. The cytosol, membrane/particulate, cytoskeletal, and nuclear fractions were extracted using a FractionPREP™ cell fractionation system (BioVision, USA) and performed according to the manufacturer's protocol. The Ru (^101Ru) and Pd (^106Pd) contents in different fractions were measured by using Thermo X-Series Quadrupole ICP-MS (Thermo Scientific) after the digestion of the samples. Briefly, the samples were digested with ultrapure HNO3 (65%), H2O2, and H3PO4 in a closed pressurized microwave digestion unit (Mars5, CEM) with medium-pressure HP500 vessels and then diluted in ultrapure water to obtain 2.0% (v/v) nitric acid. The instrument was tuned using a multielement ICP-MS 71C standard solution (Inorganic Venture). Indium (115In) at […] was used as the internal standard.
For the cellular uptake experiments, MDA-MB-231 cells (approx. 5·10^6 cells / 5 mL medium) were exposed to the complexes at their respective IC50 concentrations and at two conditions (6 h and 24 h of incubation time)., then washed with ice-cold PBS and centrifuged to obtain a cellular pellet.[7] […]

[2] = biological target: human serum albumin (HSA) (Homo sapiens, UniProt P02768); experiment: Binding to human serum albumin by steady-state and time-resolved Trp214 fluorescence
Sequence of human serum albumin (HSA) (P02768 25-609): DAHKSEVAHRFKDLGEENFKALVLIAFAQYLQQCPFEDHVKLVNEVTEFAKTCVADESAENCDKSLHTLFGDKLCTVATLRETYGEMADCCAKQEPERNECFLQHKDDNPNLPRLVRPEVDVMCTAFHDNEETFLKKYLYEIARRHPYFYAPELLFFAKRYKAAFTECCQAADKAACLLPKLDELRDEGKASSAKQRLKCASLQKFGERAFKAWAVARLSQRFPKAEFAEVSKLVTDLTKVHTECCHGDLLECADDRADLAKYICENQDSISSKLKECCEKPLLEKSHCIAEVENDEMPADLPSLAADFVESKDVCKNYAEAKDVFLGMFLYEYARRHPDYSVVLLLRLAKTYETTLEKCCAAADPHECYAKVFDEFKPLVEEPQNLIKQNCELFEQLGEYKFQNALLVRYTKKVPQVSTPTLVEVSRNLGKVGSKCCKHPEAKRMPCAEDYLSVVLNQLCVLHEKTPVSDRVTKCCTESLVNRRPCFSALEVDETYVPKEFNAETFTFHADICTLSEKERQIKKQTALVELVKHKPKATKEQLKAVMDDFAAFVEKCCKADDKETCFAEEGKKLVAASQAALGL
Experimental: (§1) The stock solutions of HSA were freshly prepared for each experiment by gently dissolving protein in PBS pH 7.4 (tablets from Fisher) for 1 hour to allow protein to completely hydrate. The concentration of the protein in the stock solutions was determined by spectrophotometry using the molar absorption coefficient at 280 nm ε280(HSA) = 36,850 M^−1·cm^−1 [38].
In each essay, all spectroscopic measurements were carried out on individually prepared samples to ensure the same preincubation time at (37.0 ± 0.1)°C, the same % of DMSO in the final samples, and the same exposure to excitation light and to avoid the need for dilution corrections. Moreover, for a direct titration protocol, a highly concentrated stock solution of the compounds in the buffer would be required, which would raise solubility issues. Dimethylsulfoxide (DMSO, from Fisher) was used to prepare concentrated stock solutions of each complex, followed by appropriate dilution to obtain the desired concentration. The DMSO content was kept at 2% (v/v) in PBS pH 7.4 in all samples. Dilutions were carried out immediately before sample preparation.
Fluorescence measurements were performed at 25.0 ± 0.1°C. The final protein concentration in the individually prepared samples (3.72 to 5 μM) was kept constant in each assay, and the complex concentration was varied to obtain desired HSA: Ru-complex molar ratios ranging from 1 : 0.25 to 1 : 10. A control sample containing the same amount of protein and final DMSO content and with no complex was also prepared for each experiment. Appropriate blank samples with no protein but with the same complex concentrations were prepared as well for background correction.
The steady-state fluorescence intensity was measured with excitation at 295 nm, and emission spectra were collected with bandwidths of 4 nm for both excitation and emission. For Stern–Volmer plots, the fluorescence intensity with emission at 340 nm was selected because it is near the maximum emission wavelength (so the sensitivity is close to maximum), but it is further to red in relation to the water Raman scattering peak. These values were corrected for the absorption and emission inner filter effects using the absorbance recorded for each sample at the excitation and emission wavelengths used for the steady-state quenching analysis. For time-resolved fluorescence measurements, the single-photon-counting technique was used with nanoLED N-280 (Horiba Jobin Yvon) as the pulsed excitation source (280 nm) and with emission collected at 350 nm (13 nm emission bandwidth), eliminating the contribution of the emission by tyrosine residues.
The experimental fluorescence intensity decays of HSA in buffer solution can be described by a sum of exponentials:(1) It=∑i=1npiexp−t/τi, where pi and τi are the pre-exponential factors and lifetime of component i, respectively. The amplitude or normalized pre-exponential of each lifetime component αi is pi/Σipi with Σiαi = 1. Fluorescence decays were analysed by an iterative deconvolution method using the TRFA Data Processor software (version 1.4; Minsk, Belarus), and the instrument response function was obtained using scattering by a colloidal suspension of silica (Ludox®, Sigma-Aldrich) diluted in water. Criteria for judging the quality of the fit were reduced χ^2 close to 1 and a random distribution of weighted residuals and residual autocorrelation.
To evaluate changes in the quantum yield by processes affecting the fluorescence lifetimes of HSA, the amplitude-weighted mean fluorescence lifetime ( τ¯ ) was calculated using the following equation:(2) τ¯=∑i=1nαiτi.
as §1, with “dissolving the” for “dissolving”, “allow the” for “allow”, “of” for “of the”, “M^−1 cm^−1.[8] […]” for “M^−1·cm^−1 [38].”

CN1CN2CN(C)C[P]([Ru+2]([P](c3ccccc3)(c3ccccc3)c3ccccc3)[P](c3ccccc3)(c3ccccc3)c3ccccc3)(C1)C2.O=S(=O)([O-])C(F)(F)F.[Cl][Pd][Cl].c1cc[cH-]c1 [Compound 11, [RuCp(PPh3)2-µ-dmoPTA-1κP-2κ^2N,N′-PdCl2](CF3SO3)]
Pd amount in the membranes [1]: only residual | Emission intensity of Trp214 relative to value in the absence of compound ([2]; 20 µM compound (1:4 HSA:compound), 24 h, λem 340 nm): ~40% | Type of quenching ([2]; HSA-Trp214 fluorescence): “Dynamic” and static | Log K′B ([2]; PBS pH 7.4/2% DMSO, 24 h at 37°C): 4.66 ± 0.07 | K′B (conditional binding constant) ([2]; PBS pH 7.4/2% DMSO, 24 h at 37°C, fluorescence lifetime Stern–Volmer): 4.58 ± 0.33 × 10^4 M^−1 | Concentration above which aggregate formation with HSA is seen ([2]; absorption spectra, only in the presence of HSA): higher than 10 µM | Spectral shift of Trp214 emission ([2]; steady-state emission, 24 h incubation): small blueshift | Effect on amplitude-weighted mean fluorescence lifetime of HSA-Trp214 ([2]; time-resolved fluorescence, λem 350 nm): decreased
